Common to all, as to type: biochemical
One test addresses PKR(R510Q) (Homo sapiens, UniProt P30613, R510Q). As to the kind of experiment: Luminescence Assay Protocol (Kinase Glo Plus), PKR(R510Q/without FBP). To be noted: PKRR510Q, without FBP; for activation at 1.54 µM / F - AC50 LUM KGP woFBP % Fold @ 1.54 μM mean: compound 1.54 μM; for activation at 1.54 µM: read-out: F - AC50 LUM KGP woFBP % Fold @ 1.54 μM mean; for AC50: gmean, read-out: D - AC50 LUM KGP woFBP AC50 μM gmean; for Emax / E - AC50 LUM KGP woFBP MAX % FOLD mean: highest % fold increase at any concentration; for Emax: read-out: E - AC50 LUM KGP woFBP MAX % FOLD mean. An outline of the steps: (§1)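 Enzyme (wt 0.8 nM, R510Q 0.8 nM, G332S 10 nM) was preincubated 30 min at RT with compound and 100 μM PEP in Tris/KCl/MgCl2 buffer, then started with 100 μM ADP, plus 30 μM FBP for G332S. Luminescence was read after 45 min at RT. AC50 came from a four-parameter fit of % fold over DMSO across 42.5 μM–2.2 nM.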
For orientation: In Kinase-Glo more light means more ATP remaining.

In the next test the target is PKR(G332S) (Homo sapiens, UniProt P30613, G332S). As to the kind of experiment: Luminescence Assay Protocol (Kinase Glo Plus), PKR(G332S/with FBP). To be noted: PKRG332S, with FBP; for activation at 1.54 µM: read-out: C - AC50 LUM KGP FBP % Fold @ 1.54 μM mean; for AC50: gmean, read-out: A - AC50 LUM KGP FBP AC50 μM gmean; for Emax: read-out: B - AC50 LUM KGP FBP MAX % FOLD mean. An outline of the steps: as §1
Chain of PKR(G332S) (P30613 whole entry G332S): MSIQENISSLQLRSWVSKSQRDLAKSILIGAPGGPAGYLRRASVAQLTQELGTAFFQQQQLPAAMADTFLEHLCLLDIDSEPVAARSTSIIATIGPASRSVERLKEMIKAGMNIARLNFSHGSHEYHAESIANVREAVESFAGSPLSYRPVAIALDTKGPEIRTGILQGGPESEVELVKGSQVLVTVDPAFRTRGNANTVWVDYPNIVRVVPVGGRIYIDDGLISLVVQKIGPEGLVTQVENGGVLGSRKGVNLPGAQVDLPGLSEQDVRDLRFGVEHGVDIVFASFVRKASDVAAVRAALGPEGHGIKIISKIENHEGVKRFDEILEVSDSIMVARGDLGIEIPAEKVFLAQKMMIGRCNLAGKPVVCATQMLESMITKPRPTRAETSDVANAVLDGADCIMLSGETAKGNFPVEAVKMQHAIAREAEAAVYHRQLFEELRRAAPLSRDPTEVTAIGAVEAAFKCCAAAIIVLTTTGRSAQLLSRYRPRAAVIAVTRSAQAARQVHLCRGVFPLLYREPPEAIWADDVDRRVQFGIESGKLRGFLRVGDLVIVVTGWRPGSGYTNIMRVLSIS

In another test the target is PKR(wt) (Homo sapiens, UniProt P30613). The test is described as follows: Luminescence Assay Protocol (Kinase Glo Plus), PKR(Wt/without FBP). To be noted: without FBP; for activation at 1.54 µM / I - AC50 LUM KGP woFBP % Fold @ 1.54 μM mean: compound 1.54 μM; for activation at 1.54 µM: read-out: I - AC50 LUM KGP woFBP % Fold @ 1.54 μM mean; for AC50: gmean, read-out: G - AC50 LUM KGP woFBP AC50 μM gmean; for Emax / H - AC50 LUM KGP woFBP MAX % FOLD mean: highest % fold increase at any concentration; for Emax: read-out: H - AC50 LUM KGP woFBP MAX % FOLD mean. An outline of the steps:
as §1

[1] abbreviates: highest % fold increase at any concentration.

The values that follow come from US11649242B2, “Pyrrolopyrrole compositions as pyruvate kinase (PKR) activators” (FORMA Therapeutics, Inc., priority 2017, dated 2023).

Broadly, the AC50 is the midpoint of the concentration-response curve, whichever way the signal moves.

Chain of PKR(R510Q) (P30613 whole entry R510Q): as the sequence (P30613 whole entry G332S) above, with S332G, R510Q counted along it
Chain of PKR(wt) (P30613 whole entry): as the sequence (P30613 whole entry G332S) above, with S332G counted along it

With `O=C([C@@H]1CCOC1)N1CC2=C(C1)CN(S(=O)(=O)c1ccc(OC(F)F)cc1)C2` [Example 14, (R)-(5-((4-(difluoromethoxy)phenyl)sulfonyl)-3,4,5,6-tetrahydropyrrolo[3,4-c]pyrrol-2(1H)-yl)(tetrahydrofuran-3-yl)methanone], the activation at 1.54 µM was 75 to 250% on PKR(R510Q), 75 to 250% at PKR(G332S) (compound 1.54 μM) and 250 to 500% on PKR(wt). In addition, the results for the AC50 on PKR(R510Q), on PKR(G332S) and on PKR(wt) were 1 to 40 µM, 0.1 to 1 µM and 0.1 to 1 µM, respectively. Besides, the Emax lay within 250 to 500% at PKR(R510Q), 75 to 250% at PKR(G332S) (setting [1]) and 250 to 500% on PKR(wt).

With `O=C([C@@H](CO)c1ccccc1)N1CC2=C(C1)CN(S(=O)(=O)c1ccc3ncsc3c1)C2` [Example 30, (R)-1-(5-(benzo[d]thiazol-6-ylsulfonyl)-3,4,5,6-tetrahydropyrrolo[3,4-c]pyrrol-2(1H)-yl)-3-hydroxy-2-phenylpropan-1-one], the activation at 1.54 µM on PKR(R510Q) lay in the range of 250 to 500%; on PKR(G332S) (compound 1.54 μM), 75 to 250%; on PKR(wt) it was 250 to 500%. For the same compound, the AC50 at PKR(R510Q), on PKR(G332S) and on PKR(wt) was 0.1 to 1 µM each time. The Emax on PKR(R510Q) fell in the range of 250 to 500%; at PKR(G332S) (setting [1]) it was 75 to 250%; on PKR(wt), 250 to 500%.

Turning to `O=C(C(CO)c1ccccn1)N1CC2=C(C1)CN(S(=O)(=O)c1ccc(OC(F)F)cc1)C2` (single isomer, unassigned) [Example 41, (S or R)-1-(5-((4-(difluoromethoxy)phenyl)sulfonyl)-3,4,5,6-tetrahydropyrrolo[3,4-c]pyrrol-2(1H)-yl)-3-hydroxy-2-(pyridin-2-yl)propan-1-one], the figures for the activation at 1.54 µM on PKR(R510Q), at PKR(G332S) (compound 1.54 μM) and at PKR(wt) were 250 to 500%, 75 to 250% and 250 to 500%, respectively. The AC50 at PKR(R510Q), at PKR(G332S) and on PKR(wt) was no more than 0.1 µM throughout. The Emax on PKR(R510Q) was 250 to 500%; on PKR(G332S) (setting [1]) it was 75 to 250%; on PKR(wt), 250 to 500%.

As for `O=C(C1CCCOC1)N1CC2=C(C1)CN(S(=O)(=O)c1cnc3c(c1)OCCO3)C2` (single isomer, unassigned) [Example 5, (R or S)-(5-((2,3-dihydro-[1,4]dioxino[2,3-b]pyridin-7-yl)sulfonyl)-3,4,5,6-tetrahydropyrrolo[3,4-c]pyrrol-2(1H)-yl)(tetrahydro-2H-pyran-3-yl)methanone], the activation at 1.54 µM at PKR(R510Q), at PKR(G332S) (compound 1.54 μM) and at PKR(wt) was 75 to 250% each time. Further, the AC50 at PKR(R510Q) was in the range of 1 to 40 µM; on PKR(G332S), 1 to 40 µM; at PKR(wt) it was 0.1 to 1 µM. The results for the Emax at PKR(R510Q), at PKR(G332S) (setting [1]) and on PKR(wt) were 250 to 500%, 75 to 250% and 75 to 250%, respectively.

`O=C([C@H](CO)c1ccccc1)N1CC2=C(C1)CN(S(=O)(=O)c1ccc3ncsc3c1)C2` [Example 29, (S)-1-(5-(benzo[d]thiazol-6-ylsulfonyl)-3,4,5,6-tetrahydropyrrolo[3,4-c]pyrrol-2(1H)-yl)-3-hydroxy-2-phenylpropan-1-one]: the activation at 1.54 µM on PKR(R510Q) lay within 250 to 500%; at PKR(G332S) (compound 1.54 μM), 75 to 250%; at PKR(wt), 250 to 500%. Besides, the half-maximal activity concentration (AC50) at PKR(R510Q), on PKR(G332S) and on PKR(wt) was no more than 0.1 µM in each case. The Emax is 250 to 500% at PKR(R510Q), 75 to 250% at PKR(G332S) (setting [1]) and 250 to 500% at PKR(wt).

`O=C(C(CO)c1ccccc1)N1CC2=C(C1)CN(S(=O)(=O)c1ccc(OC(F)F)cc1)C2` (stereo not drawn) [Example 49, 1-(5-((4-(difluoromethoxy)phenyl)sulfonyl)-3,4,5,6-tetrahydropyrrolo[3,4-c]pyrrol-2(1H)-yl)-3-hydroxy-2-phenylpropan-1-one]: the activation at 1.54 µM on PKR(R510Q) is 250 to 500%; on PKR(G332S) (compound 1.54 μM), 75 to 250%; at PKR(wt), 250 to 500%. Also, the AC50 at PKR(R510Q), on PKR(G332S) and on PKR(wt) was no more than 0.1 µM each time. In addition, the Emax fell in the range of 250 to 500% at PKR(R510Q), 75 to 250% at PKR(G332S) (setting [1]) and 250 to 500% on PKR(wt).

Consider `CC(C)(O)[C@@H](C(=O)N1CC2=C(C1)CN(S(=O)(=O)c1ccc(OC(F)F)cc1)C2)c1ccccc1` [Example 28, (S)-1-(5-((4-(difluoromethoxy)phenyl)sulfonyl)-3,4,5,6-tetrahydropyrrolo[3,4-c]pyrrol-2(1H)-yl)-3-hydroxy-3-methyl-2-phenylbutan-1-one], for which the activation at 1.54 µM on PKR(R510Q), at PKR(G332S) (compound 1.54 μM) and at PKR(wt) was 75 to 250% throughout. In addition, the figures for the AC50 on PKR(R510Q), at PKR(G332S) and at PKR(wt) were 1 to 40 µM, no more than 0.1 µM and 0.1 to 1 µM, respectively. Further, the values for the Emax on PKR(R510Q), at PKR(G332S) (setting [1]) and at PKR(wt) were 250 to 500%, 75 to 250% and 250 to 500%, respectively.

Take `CC(C)(CO)C(=O)N1CC2=C(C1)CN(S(=O)(=O)c1ccc3ncsc3c1)C2` [Example 19, 1-(5-(benzo[d]thiazol-6-ylsulfonyl)-3,4,5,6-tetrahydropyrrolo[3,4-c]pyrrol-2(1H)-yl)-3-hydroxy-2,2-dimethylpropan-1-one]: the activation at 1.54 µM at PKR(R510Q), at PKR(G332S) (compound 1.54 μM) and at PKR(wt) was 75 to 250% in each case. For the same compound, the AC50 on PKR(R510Q) was 0.1 to 1 µM; at PKR(G332S) it was greater than 40 µM; at PKR(wt), 0.1 to 1 µM. Also, the Emax on PKR(R510Q) was in the range of 250 to 500%; at PKR(G332S) (setting [1]) it was 75 to 250%; at PKR(wt), 75 to 250%.

Consider `O=C(C(CO)c1ccccn1)N1CC2=C(C1)CN(S(=O)(=O)c1cnc3c(c1)OCCO3)C2` (single isomer, unassigned) [Example 3, (R or S)-1-(5-((2,3-dihydro-[1,4]dioxino[2,3-b]pyridin-7-yl)sulfonyl)-3,4,5,6-tetrahydropyrrolo[3,4-c]pyrrol-2(1H)-yl)-3-hydroxy-2-(pyridin-2-yl)propan-1-one], for which, at PKR(R510Q), the “F - AC50 LUM KGP woFBP % Fold @ 1.54 μM mean” value is “++ (>75% and ≤250% (++))”; the AC50 is 0.1 to 1 µM; the “E - AC50 LUM KGP woFBP MAX % FOLD mean” value is “+++ (>250% and ≤500% (+++))”. Besides, on PKR(G332S) (compound 1.54 μM), the activation at 1.54 µM was 75 to 250%. The AC50 at PKR(G332S) is 1 to 40 µM. On PKR(G332S) (setting [1]), the Emax was 75 to 250%. In addition, at PKR(wt), the “I - AC50 LUM KGP woFBP % Fold @ 1.54 μM mean” value was “++ (>75% and ≤250% (++))”; the half-maximal activity concentration (AC50) is no more than 0.1 µM; the “H - AC50 LUM KGP woFBP MAX % FOLD mean” value was “++ (>75% and ≤250% (++))”.

For the compound `O=C(C1CCCOC1)N1CC2=C(C1)CN(S(=O)(=O)c1ccccn1)C2` (single isomer, unassigned) [Example 44, (R or S)-(5-(pyridin-2-ylsulfonyl)-3,4,5,6-tetrahydropyrrolo[3,4-c]pyrrol-2(1H)-yl)(tetrahydro-2H-pyran-3-yl)methanone], on PKR(R510Q), the activation at 1.54 µM is 75 to 250%; the AC50 is greater than 40 µM; the “E - AC50 LUM KGP woFBP MAX % FOLD mean” value was “++ (>75% and ≤250% (++))”. For the same compound, at PKR(G332S) (compound 1.54 μM), the activation at 1.54 µM fell in the range of 75 to 250%. The half-maximal activity concentration (AC50) at PKR(G332S) fell in the range of 1 to 40 µM. At PKR(G332S) (setting [1]), the Emax lay within 75 to 250%. For the same compound, on PKR(wt), the activation at 1.54 µM was 75 to 250%; the AC50 was 1 to 40 µM; the “H - AC50 LUM KGP woFBP MAX % FOLD mean” value was “++ (>75% and ≤250% (++))”.

Take `O=C(C1CCCOC1)N1CC2=C(C1)CN(S(=O)(=O)c1ccccn1)C2` (single isomer, unassigned) [Example 45, (S or R)-(5-(pyridin-2-ylsulfonyl)-3,4,5,6-tetrahydropyrrolo[3,4-c]pyrrol-2(1H)-yl)(tetrahydro-2H-pyran-3-yl)methanone]: at PKR(R510Q), the “F - AC50 LUM KGP woFBP % Fold @ 1.54 μM mean” value was “++ (>75% and ≤250% (++))”; the AC50 lay within 1 to 40 µM; the “E - AC50 LUM KGP woFBP MAX % FOLD mean” value is “+++ (>250% and ≤500% (+++))”. The “C - AC50 LUM KGP FBP % Fold @ 1.54 μM mean” value at PKR(G332S) (compound 1.54 μM) is “++ (>75% and ≤250% (++))”. The AC50 on PKR(G332S) was 0.1 to 1 µM. For the same compound, on PKR(G332S) (setting [1]), the “B - AC50 LUM KGP FBP MAX % FOLD mean” value is “++ (>75% and ≤250% (++))”. At PKR(wt), the “I - AC50 LUM KGP woFBP % Fold @ 1.54 μM mean” value is “++ (>75% and ≤250% (++))”; the AC50 was in the range of 0.1 to 1 µM; the “H - AC50 LUM KGP woFBP MAX % FOLD mean” value was “+++ (>250% and ≤500% (+++))”.

Regarding `O=C([C@H](CO)c1ccccc1)N1CC2=C(C1)CN(S(=O)(=O)c1ccc(C(F)(F)F)nc1)C2` [Example 52, (2S)-3-hydroxy-2-phenyl-1-(5-{[6-(trifluoromethyl)pyridin-3-yl]sulfonyl}-1H,2H,3H,4H,5H,6H-pyrrolo[3,4-c]pyrrol-2-yl)propan-1-one], the activation at 1.54 µM on PKR(R510Q), at PKR(G332S) (compound 1.54 μM) and at PKR(wt) was 75 to 250% in each case. The AC50 at PKR(R510Q) was 1 to 40 µM; at PKR(G332S), 0.1 to 1 µM; on PKR(wt) it was 0.1 to 1 µM. The Emax at PKR(R510Q) fell in the range of 250 to 500%; on PKR(G332S) (setting [1]), 75 to 250%; at PKR(wt), 75 to 250%.
